Assay results from patent US7807712B2, “Oxy substituted chalcones as antihyperglycemic and antidyslipidemic agents” (priority 2004, dated 2010).

Tests used:
db/db mice [1] = experiment: Antihyperglycemic activity in db/db mice; type: in vivo, mouse (C57BL/KsBom-db); conditions: for % Fall in blood glucose levels 6 days / % Fall in blood glucose levels 10 days: db/db mice; for % Fall in blood glucose levels 6 days: day 6 postprandial protocol; for % Fall in blood glucose levels 10 days: day 10 OGTT, glucose 3 gm/kg
From the text: (§1) The db/db mouse is a well-characterized model of […]. The background for the db/db mouse is the C57BL/Ks strain. The major deficiency of the C57BL/KsBom-db mouse (db/db) is lack of a functional leptin receptor. This leads to defective leptin signaling and a complete lack of feedback from leptin. […] The db/db mouse develops NIDDM from around week 10. The disease is stable until week 20, where destruction of pancreatic β-cells can be recognized clinically as decreasing levels of plasma insulin and very severe hyperglycemia. The male mice are more diabetic than female and will normally die earlier. The advantage of using male mice for experimental purposes is that the fluctuations in plasma parameters are less than in the females where the estrogen cycle affects the clinical diabetes mellitus. The optimal age of db/db mice used for experiments will be from week 12 to 18 when they have developed NIDDM with diabetic dyslipidemia but still have functional β-cells in the pancreas. C57BL/KsBom-db mice 12-18 weeks, 40-50 g bred in the animal house of CDRI, Lucknow. 10 male mice were used in the experiments. The mice were housed in groups of 5 individuals in a room controlled for temperature (23±2° C.) and 12/12 hours light/dark cycle (lights on at 6.00 am). Body weight was measured daily from day 1 to day 10. All animals had free access to fresh water and to normal chow except on the days of the postprandial protocol day 6 and during the overnight fast before the OGTT on day 10. Blood glucose was checked every morning up till day 5. On day 6 postprandial protocol was employed, in this method blood glucose was checked at −0.30 min and 0 h. Test compounds were given to the treatment group whereas control group received only gum acacia (1.0%); the blood glucose was again checked at 1, 2, 3, 4 and 6 h post test compound treatment. Finally on day 10 an oral glucose tolerance test (OGTT) was performed after an overnight fasting. Blood glucose was measured at −0.30 min and test drugs were fed, blood glucose was again measured at 0.0 min post treatment, at this juncture glucose solution was given at a dose of 3 gm/kg to all the groups including control group; the profile of blood glucose was checked at 30 min, 60 min, 90 min and 120 min post glucose administration. Quantitative glucose tolerance of each animal was calculated by Area Under Curve (AUC) method (Prism Software). Comparing the AUC of experimental and control groups determined the percentage antihyperglycemic activity. Statistical comparison was made by Dunnett's test.

db/db mice [2] = experiment: Antidyslipidemic activity in db/db mice; type: in vivo, mouse (C57BL/KsBom-db); conditions: for % Fall in lipid levels HDL: serum HDL-cholesterol; for % Fall in lipid levels Chol.: serum cholesterol; for % Fall in lipid levels TG: serum triglycerides
From the text: as §1
Cholesterol and triglycerides were estimated using the same procedures as given above.
HDL-Cholesterol was estimated using the kit provided by the Roche Diagnostics. Cholestest N HDL is a liquid reagent that directly measures the HDL-cholesterol concentration in serum by a new method that is based on the selective solubilising effect of proprietary detergent to the different lipoproteins. In the assay system, only HDL is solubilised by a special detergent; other lipoproteins are not disturbed. After HDL is selectively disrupted, HDL cholesterol is measured enzymatically (Gordon, T.; Casstelli, W. P.; Hjortland, M. C.; Kannel, W. B.; Dawber, T. R. High density lipoproteins as a protective factor against coronary heart disease, Am. J. Med. 1977, 62, 707-714.).

[3] = tested on: streptozotocin-induced diabetic rats; experiment: Sucrose-challenged streptozotocin-induced diabetic rats (STZ-S), antihyperglycemic activity; type: in vivo, rat (Sprague Dawley); conditions: for activity in STZ model: summary statement
Description: Male albino rats of Sprague Dawley strain of body weight […] were selected for this study. Streptozotocin (Sigma, USA) was dissolved in 100 mM citrate buffer pH 4.5 and calculated amount of the fresh solution was injected to overnight fasted rats (45 mg/kg) intraperitoneally. Blood glucose level was checked 48 h later by glucostrips and animals showing blood glucose values between 144 to 270 mg/dl (8 to 15 mM) were included in the experiment and termed diabetic. The diabetic animals were divided into groups consisting of five to six animals in each group. Animals of experimental groups were administered suspension of the desired test samples orally (made in 1.0% gum acacia) at a dose of 100-mg/kg-body weight. Animals of control group were given an equal amount of 1.0% gum acacia. A sucrose load of 2.5-g/kg body weight was given after 30 minutes of compound administration. After 30 minutes of post sucrose load blood glucose level was again checked by glucostrips at 30, 60, 90, 120, 180, 240, 300 min and at 24 h, respectively. Animals not found diabetic after 24 hours post treatment of the test sample were not considered and omitted from the calculations and termed as non-responders. […] Food but not water was withheld from the cages during the experimentation. Comparing the AUC of experimental and control groups determined the percent antihyperglycemic activity. Statistical comparison between groups was made by Student's ‘t’ test.

[4] = 100 mg/kg oral, sucrose load 2.5 g/kg, AUC vs control

SMILES | % Fall in blood glucose levels 6 days (db/db mice [1]) | % Fall in blood glucose levels 10 days (db/db mice [1]) | % Fall in lipid levels HDL (db/db mice [2]) | % Fall in lipid levels Chol. (db/db mice [2]) | % Fall in lipid levels TG (db/db mice [2]) | % Fall in blood glucose levels STZ-S 24 h [3, 4] | activity in STZ model [3] | lowering of blood glucose in db/db mice (db/db mice [1]; summary statement) | % Fall in blood glucose levels STZ-S 5 h ([3]; 100 mg/kg oral, sucrose load 2.5 g/kg, AUC vs control, 5 h)
COc1ccc(/C=C/C(=O)c2ccc(OCC(O)CN3CCN(c4ccccc4)CC3)cc2)cc1OC (stereo not shown) [Compound 18, 3,4-Dimethoxy-4′-[2-hydroxy-3-(4-phenylpiperazin-1-yl)-propoxy]-chalcone] | 29.9% | 18.9% | 11.8% | 1.36% | +5.20% | 20.3% | significant results |  | 
CC(C)(C)NCC(O)COc1ccc(C(=O)/C=C/c2ccc3c(c2)OCO3)cc1 (stereo not shown) [Compound 34, 4′-[^3-tert-Butylamino-2-hydroxy-propoxy]-3,4-methylenedioxy-chalcone] | NIL | 32.0% | +1.76% | 40.3% | +7.44% | 23.0% | significant results |  | 
O=C1NC(=O)/C(=C\c2ccc(OCCCCCOc3cccc(C(=O)/C=C/c4ccc5c(c4)OCO5)c3)cc2)S1 [Compound 46, 3,4-Methylenedioxy-3′-{5-[4-(thiazolidin-2,4-dione-5-ylidinemethyl)-phenoxy]-pentyloxy}-chalcone] | 1.76% | 23.1% | 21.4% | 18.9% | 6.76% | 7.18% |  | significant lowering of blood glucose | 11.8%
